Measured values published in ChEMBL document CHEMBL3045577, “Synthesis and anti-HIV activity evaluation of novel N-arylidene-2-[1-(naphthalen-1-yl)-1H-tetrazol-5-ylthio]acetohydrazides” (Med Chem Res, 2010).

Legend:
[1] = Selectivity index, ratio of CC50 for human MT4 cells to EC50 for HIV-2 ROD infected in MT4 cells; assay type: toxicity, cell-based; details: read-out: Ratio CC50/EC50
[2] = Selectivity index, ratio of CC50 for human MT4 cells to EC50 for HIV-1 3B infected in MT4 cells; assay type: toxicity, cell-based; details: read-out: Ratio CC50/EC50
[3] = Cytotoxicity against Homo sapiens (human) MT4 cells by MTT assay; assay type: cell-based
[4] = system: Human immunodeficiency virus 2; experiment: Antiviral activity against Human immunodeficiency virus type 2 (ISOLATE ROD) infected human MT4 cells assessed as inhibition of virus-induced cytopathicity after 4 days by MTT assay; assay type: functional, organism-based; details: Human immunodeficiency virus 2, ISOLATE ROD, MT4, 96 h
[5] = system: Human immunodeficiency virus 1; experiment: Antiviral activity against Human immunodeficiency virus 1 IIIB infected human MT4 cells assessed as inhibition of virus-induced cytopathicity after 4 days by MTT assay; assay type: functional, organism-based; details: MT4, 96 h

COc1cccc(/C=N/NC(=O)CSc2nnnn2-c2cccc3ccccc23)c1OC
selectivity ratio [1]: < 1
selectivity ratio [2]: < 1
CC50 [3]: 192 µM
EC50 [4]: > 192 µM
EC50 [5]: > 192 µM

COc1ccc(/C=N/NC(=O)CSc2nnnn2-c2cccc3ccccc23)cc1OC
selectivity ratio [1]: < 1
selectivity ratio [2]: ≤ 5
CC50 [3]: 191 µM
EC50 [4]: > 191 µM
EC50 [5]: ≥ 36.3 µM

COc1cc(/C=N/NC(=O)CSc2nnnn2-c2cccc3ccccc23)ccc1O
selectivity ratio [1]: 1
selectivity ratio [2]: 1
CC50 [3]: > 288 µM
EC50 [4]: > 288 µM
EC50 [5]: > 288 µM

COc1ccc(O)c(/C=N/NC(=O)CSc2nnnn2-c2cccc3ccccc23)c1
selectivity ratio [1]: < 1
selectivity ratio [2]: < 1
CC50 [3]: 4.51 µM
EC50 [4]: > 4.51 µM
EC50 [5]: > 4.51 µM

O=C(CSc1nnnn1-c1cccc2ccccc12)N/N=C/c1ccccc1O
selectivity ratio [1]: < 1
selectivity ratio [2]: < 1
CC50 [3]: 4.85 µM
EC50 [4]: > 4.85 µM
EC50 [5]: > 4.85 µM

O=C(CSc1nnnn1-c1cccc2ccccc12)N/N=C/c1cccc(O)c1
selectivity ratio [1]: < 1
selectivity ratio [2]: 6
CC50 [3]: 169 µM
EC50 [4]: > 169 µM
EC50 [5]: 29.6 µM

O=C(CSc1nnnn1-c1cccc2ccccc12)N/N=C/c1ccc(O)cc1
selectivity ratio [1]: 1
selectivity ratio [2]: > 9
CC50 [3]: > 309 µM
EC50 [4]: > 309 µM
EC50 [5]: 31.6 µM

CN(C)c1ccc(/C=N/NC(=O)CSc2nnnn2-c2cccc3ccccc23)cc1
selectivity ratio [1]: 1
selectivity ratio [2]: 1
CC50 [3]: > 290 µM
EC50 [4]: > 290 µM
EC50 [5]: > 290 µM

O=C(CSc1nnnn1-c1cccc2ccccc12)N/N=C/c1ccccc1
selectivity ratio [1]: < 1
selectivity ratio [2]: ≤ 10
CC50 [3]: 216 µM
EC50 [4]: > 229 µM
EC50 [5]: ≥ 21.4 µM

O=C(CSc1nnnn1-c1cccc2ccccc12)N/N=C/c1cccs1
selectivity ratio [1]: 1
selectivity ratio [2]: 1
CC50 [3]: > 317 µM
EC50 [4]: > 317 µM
EC50 [5]: > 317 µM

O=C(CSc1nnnn1-c1cccc2ccccc12)N/N=C/c1ccco1
selectivity ratio [1]: 1
selectivity ratio [2]: 1
CC50 [3]: > 330 µM
EC50 [4]: > 330 µM
EC50 [5]: > 330 µM

O=C(CSc1nnnn1-c1cccc2ccccc12)N/N=C/c1ccc(Cl)cc1
selectivity ratio [1]: 1
selectivity ratio [2]: 1
CC50 [3]: > 296 µM
EC50 [4]: > 296 µM
EC50 [5]: > 296 µM

O=C(CSc1nnnn1-c1cccc2ccccc12)N/N=C/c1cccc(Cl)c1
selectivity ratio [1]: < 1
selectivity ratio [2]: < 1
CC50 [3]: 240 µM
EC50 [4]: > 240 µM
EC50 [5]: > 240 µM

O=C(CSc1nnnn1-c1cccc2ccccc12)N/N=C/c1ccccc1Cl
selectivity ratio [1]: < 1
selectivity ratio [2]: < 1
CC50 [3]: 69.7 µM
EC50 [4]: > 69.7 µM
EC50 [5]: > 69.7 µM

O=C(CSc1nnnn1-c1cccc2ccccc12)N/N=C/c1ccccc1F
selectivity ratio [1]: 1
selectivity ratio [2]: 1
CC50 [3]: ≥ 118 µM
EC50 [4]: > 118 µM
EC50 [5]: > 118 µM

O=C(CSc1nnnn1-c1cccc2ccccc12)N/N=C/c1ccc(F)cc1
selectivity ratio [1]: 1
selectivity ratio [2]: 1
CC50 [3]: > 308 µM
EC50 [4]: > 308 µM
EC50 [5]: > 308 µM

O=C(CSc1nnnn1-c1cccc2ccccc12)N/N=C/c1ccc([N+](=O)[O-])cc1
selectivity ratio [1]: 1
selectivity ratio [2]: 1
CC50 [3]: ≥ 261 µM
EC50 [4]: > 261 µM
EC50 [5]: > 261 µM

Cc1cccc(/C=N/NC(=O)CSc2nnnn2-c2cccc3ccccc23)c1
selectivity ratio [1]: < 1
selectivity ratio [2]: < 1
CC50 [3]: 269 µM
EC50 [4]: > 269 µM
EC50 [5]: > 269 µM

COc1ccc(/C=N/NC(=O)CSc2nnnn2-c2cccc3ccccc23)cc1
selectivity ratio [1]: 1
selectivity ratio [2]: 1
CC50 [3]: > 299 µM
EC50 [4]: > 299 µM
EC50 [5]: > 299 µM

COc1ccc(/C=N/NC(=O)CSc2nnnn2-c2cccc3ccccc23)c(OC)c1
selectivity ratio [1]: < 1
selectivity ratio [2]: < 1
CC50 [3]: 28.3 µM
EC50 [4]: > 28.3 µM
EC50 [5]: > 28.3 µM

CC(C)Nc1cccnc1N1CCN(C(=O)c2cc3cc(NS(C)(=O)=O)ccc3[nH]2)CC1 [DELAVIRDINE]
selectivity ratio [2]: > 12
CC50 [3]: > 3.83 µM

O=C1Nc2ccc(Cl)cc2[C@@](C#CC2CC2)(C(F)(F)F)O1 [EFAVIRENZ]
selectivity ratio [2]: > 1430
CC50 [3]: > 6.34 µM

Cc1ccnc2c1NC(=O)c1cccnc1N2C1CC1 [NEVIRAPINE]
CC50 [3]: > 15 µM

Cc1cn([C@H]2C[C@H](N=[N+]=[N-])[C@@H](CO)O2)c(=O)[nH]c1=O [ZIDOVUDINE]
selectivity ratio [2]: > 6190
CC50 [3]: > 93.5 µM
